How the values were obtained:
recombinant human GSK3β = recombinant human GSK3β (Homo sapiens, UniProt P49841); assay: in vitro enzymatic assay (Kinase-Glo Max) for inhibition of GSK3β; assay type: biochemical; details: 10 uM ATP
Method: (§1) Enzymatic activities of compounds of the present disclosure are tested with recombinant human GSK3 using an in vitro enzymatic assay for inhibition GSK3α and GSK3β.
(§2) The assay was performed using Kinase-Glo Max luminescence kinase assay kit (Promega). It measures kinase activity by quantitating the amount of ATP remaining in solution following a kinase reaction. The luminescent signal from the assay is correlated with the amount of ATP present and is inversely correlated with the amount of kinase activity. The compounds were diluted in 10% DMSO) and 5 μl of the dilution was added to a 50 μl reaction so that the final concentration of DMSO is 1% in all of reactions. The enzymatic reactions were conducted at 30° C. for 40 minutes. […] After the enzymatic reaction, 50 μl of Kinase-Glo Max Luminescence kinase assay solution (Promega) was added to each reaction and incubate the plate for 15 minutes at room temperature. Luminescence signal was measured using a BioTek Synergy 2 microplate reader.
(§3) Kinase activity assays were performed in duplicate at each concentration. The luminescence data were analyzed using the computer software, Graphpad Prism. The difference between luminescence intensities in the absence of Kinase (Lut) and in the presence of Kinase (Luc) was defined as 100% activity (Lut−Luc). […]

[1] = tested on: Lgr5-positive cochlear cells; assay: Expansion of Lgr5-positive cells (cochlear stem cell expansion, Lgr5-GFP flow cytometry); assay type: cell-based; details: 240 h; Lgr5-GFP mouse cochlear cells, 10 days in culture; read-out: Potency (Lgr5-positive cell expansion)
Method: Lgr5-EGFP-IRES-Cre-ER mice (Barker et al., 2007) (http://jaxmice.jax.org/strain/008875.html) are used to analyze the effects of small molecules on cochlear stem cell expansion.
Isolation of stem cells from the inner ear: All animal studies are conducted under an approved institutional protocol according to National Institutes of Health guidelines. For experiments with neonatal mice (postnatal days 1-3), the cochleae are dissected in HBSS and the organ of Corti are separated from the stria vascularis and the modiolus. The organs of Corti are then treated with Cell Recovery Solution (Corning) for 1 h to separate cochlear epithelium from the underlying mesenchyme. Epithelia are then collected and treated with TrypLE (Life Technologies) for 15-20 minutes at 37° C. Single cells obtained by mechanical trituration are filtered (40 μm) and suspended in Matrigel (Corning) for 3D culture. […]
Lgr5-positive cells are quantified after 10 days (D10) in culture in multiple conditions. […] The cells are then stained with propidium iodide (PI) and are analyzed using a flow cytometer for Lgr5-GFP expression. The number of GFP-positive cells and the percentage of GFP-positive cells are quantified.

recombinant human GSK3α = recombinant human GSK3α (Homo sapiens, UniProt P49840); assay: in vitro enzymatic assay (Kinase-Glo Max) for inhibition of GSK3α; assay type: biochemical; details: 10 uM ATP, 0.1 mg/ml GSKtide, 30° C. 40 minutes; read-out: Potency GSK-3alpha
recombinant human GSK3α, sequence (P49840 whole entry): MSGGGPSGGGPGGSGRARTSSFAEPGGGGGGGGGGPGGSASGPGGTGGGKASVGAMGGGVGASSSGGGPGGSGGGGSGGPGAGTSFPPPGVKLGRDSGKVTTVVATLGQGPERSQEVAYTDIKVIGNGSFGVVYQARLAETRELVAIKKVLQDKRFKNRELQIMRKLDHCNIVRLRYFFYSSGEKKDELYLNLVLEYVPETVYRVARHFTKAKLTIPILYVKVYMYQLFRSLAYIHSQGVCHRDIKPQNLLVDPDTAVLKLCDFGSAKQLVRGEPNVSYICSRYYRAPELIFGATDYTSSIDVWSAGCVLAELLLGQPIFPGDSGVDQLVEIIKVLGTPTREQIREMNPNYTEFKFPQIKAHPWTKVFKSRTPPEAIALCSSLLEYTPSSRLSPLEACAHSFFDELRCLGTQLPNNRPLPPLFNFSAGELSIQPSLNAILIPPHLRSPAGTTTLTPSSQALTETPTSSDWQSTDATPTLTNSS
Method: as §1, §2, §3

recombinant human GSK3β, sequence (P49841 whole entry): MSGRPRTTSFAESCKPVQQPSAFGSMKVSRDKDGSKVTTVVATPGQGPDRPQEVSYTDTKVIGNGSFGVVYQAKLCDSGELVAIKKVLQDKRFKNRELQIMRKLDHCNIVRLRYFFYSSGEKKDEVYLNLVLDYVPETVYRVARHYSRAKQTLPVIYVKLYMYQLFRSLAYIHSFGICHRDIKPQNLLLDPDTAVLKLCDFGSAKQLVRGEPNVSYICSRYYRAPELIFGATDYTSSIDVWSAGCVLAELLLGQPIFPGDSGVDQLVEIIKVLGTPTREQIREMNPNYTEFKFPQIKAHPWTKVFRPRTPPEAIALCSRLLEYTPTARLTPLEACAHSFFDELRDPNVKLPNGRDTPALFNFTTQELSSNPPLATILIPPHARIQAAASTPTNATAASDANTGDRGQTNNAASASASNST

Row | Structure (SMILES) | IC50 (recombinant human GSK3β; 0.1 mg/ml GSKtide, 30° C. 40 minutes, read-out: Potency GSK-3beta) [µM] | EC50 [1] [µM] | IC50 (recombinant human GSK3α) [µM] | inhibition at 10 µM (recombinant human GSK3β; at 10 uM compound, read-out: Potency GSK-3beta: % inhibition) [%]
1 | O=C(N1CCCCC1)N1CCn2cc(-c3[nH][nH]c(=O)c3-c3cnc4ccccn34)c3cc(F)cc(c32)C1 [Compound I-4] | 0.706 | > 10 | 0.348 | 
2 | O=C(N1CCCCC1)N1CCn2cc(-c3c(-c4cnc5ccccn45)[nH][nH]c3=O)c3cc(F)cc(c32)C1 [Compound I-52] |  | > 10 | 10 | 34

Reference: patent publication US20200316089A1, “1,2-DIHYDRO-3H-PYRAZOL-3-ONE COMPOUNDS AND METHODS OF USING SAME” (Frequency Therapeutics, Inc., priority 2017, published 2020)
